“Also recorded” adds a separate entry of the source. Non-standard residues stand in square brackets, D forms with d. Residues, ends and D or L forms follow the SMILES beside them. *: point of attachment. Phenylacetyl(2,3,4,5,6-F5) = O=C(Cc1c(F)c(F)c(F)c(F)c1F)*; Phe(F5) = N[C@@H](Cc1c(F)c(F)c(F)c(F)c1F)C(=O)O; Phe(4-Cl) = N[C@@H](Cc1ccc(Cl)cc1)C(=O)O; hArg = N=C(N)NCCCC[C@H](N)C(=O)O; 12Ado = NCCCCCCCCCCCC(=O)O; Nle = CCCC[C@H](N)C(=O)O; Orn = NCCC[C@H](N)C(=O)O; Abu = CC[C@H](N)C(=O)O
What was measured:
HCC827 cells = test: In vitro cell viability, lung cancer HCC827; assay type: cell-based, human; conditions: 5 μM, 72 h; relative to MIA602 = 1; Table 3A
Experimental: (§1) The inhibitory effects of the various synthesized GHRH antagonists were tested in cell proliferation assays in various human cancer cell lines including stomach cancer (KATOIII, N87), colon cancer (HT-29), urothelial cancer (J82, RT4), pancreatic cancer (PANC-1, CFPAC-1), prostatic cancer (PC3), breast cancer (MX-1, HCC1806), ovarian cancer (SK-OV-3, OVCAR-3) and lung cancer (HCC827, H460).
(§2) Cell culture. Human cancer cell lines including pancreatic (PANC-1 and CFPAC-1), lung (HCC827 and H460), stomach (NCI-N87 and KATOIII), urothelial (J82, RT4), prostatic (PC3), breast (MX-1 and HCC 1806), colorectal (HT-29), and ovarian (SK-OV-3 and OVCAR-3) were obtained from the American Type Culture Collection (ATCC) and cultured at 37° C. in a humidified 95% air/5% CO2 atmosphere in the medium recommended by ATCC.
(§3) In vitro cell viability. Cell viability was analyzed as follows: cancer cells including pancreatic (PANC-1 and CFPAC-1), lung (HCC827 and H460), stomach (NCI-N87 and KATOIII), urothelial (J82, RT4), prostatic (PC3) and breast (MX-1 and HCC 1806), colorectal (HT-29) and ovarian (SK-OV-3 and OVCAR-3) were grown on 96 well plates to ˜60% confluence, the cells were starved for 24 h in culture medium containing 0.5% FBS. Cells were then treated with GHRH antagonists MIA602 AVR compounds at concentrations of 1, 2.5 or 5 μM, or vehicle (0.1% DMSO) in quintuplicates for 72 hours. The medium was replaced every 48 hours. Cell viability was measured using CellTiter 96 aqueous one solution kit (Promega). Inhibitory effects of tested AVR compounds in comparison to that of MIA602 are presented as inhibitory potency.
(§4) Inhibitory effects of selected AVR compounds in comparison to that of MIA602 are presented as inhibitory potency (e.g., percentage of inhibition). […] The cell lines tested including lung cancer HCC827 (FIG. 2A), pancreatic cancer CFPAC-1 (FIG. 2B), stomach cancer N87 (FIG. 2C), colon cancer HT-29 (FIG. 2D), breast cancers MX-1 and HCC1806 (FIGS. 2E, F). Based on the results of cell proliferation assay after cancer cells were treated with antagonist at concentration of 5 μM for 72H, the relative inhibitory potency of AVR antagonists in comparison to MIA-602 is summarized in Table 3 A and B. Over 60 AVR compounds were tested in 12 cancer cell lines.
(§5) Based on the results of cell proliferation assay after cancer cells were treated with antagonist at concentration of 5 µM for 72H, * at concentration of 2 µM for 72 H.

CFPAC-1 cells = test: In vitro cell viability, pancreatic cancer CFPAC-1; assay type: cell-based, human; conditions: 5 μM, 72 h; relative to MIA602 = 1; Table 3A
Experimental: as §1, §2, §3, §4, §5

[1] = target: T1, membrane GHRH-receptors on human anterior pituitary cells (Homo sapiens, UniProt Q02643); test: Competitive receptor binding, displacement of 125I-[His1,Nle27]-hGH-RH(1-32)NH2 from human pituitary membranes
T1 construct: Human pituitary was purchased from the National Hormone and Peptide Program; tissue National Hormone and Peptide Program; host or cells: human pituitary membrane fractions
T1 sequence (Q02643 23-423): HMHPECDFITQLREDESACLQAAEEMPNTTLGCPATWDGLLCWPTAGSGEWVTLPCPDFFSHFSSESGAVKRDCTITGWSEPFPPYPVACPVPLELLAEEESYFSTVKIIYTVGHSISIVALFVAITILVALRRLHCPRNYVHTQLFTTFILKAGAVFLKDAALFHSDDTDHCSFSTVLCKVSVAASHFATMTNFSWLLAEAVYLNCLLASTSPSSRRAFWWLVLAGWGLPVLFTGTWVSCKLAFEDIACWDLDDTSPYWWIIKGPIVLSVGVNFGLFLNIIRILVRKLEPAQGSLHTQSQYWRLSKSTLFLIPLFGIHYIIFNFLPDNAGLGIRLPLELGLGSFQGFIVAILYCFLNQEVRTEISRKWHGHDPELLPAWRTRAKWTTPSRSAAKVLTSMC
Experimental: Receptor binding affinities in vitro. Preparation of human pituitary membrane fractions and receptor binding of analogs of GH-RH were performed (Halmos G, Rekasi Z, Szoke B, Schally A V. (1993) Receptor 3:87-97). Human pituitary was purchased from the National Hormone and Peptide Program. […] Relative affinities compared to hGH-RH(1-29)NH2 were calculated as the ratio of IC50 (dose causing 50% inhibition of specific binding to receptors) of the tested peptides to the IC50 of hGH-RH(1-29)NH2. The values were calculated from technical duplicate tubes.
Nineteen new AVR analogs of GHRH were tested in the receptor binding assay. Table 6 presents the IC50 values of GHRH antagonists to membrane GHRH-receptors binding on human anterior pituitary cells.

## CCCC[C@H](NC(=O)[C@@H](NC(=O)[C@H](CC(=O)O)NC(=O)[C@H](CCC(N)=O)NC(=O)[C@H](CC(C)C)NC(=O)[C@H](CC(C)C)NC(=O)[C@H](CCCN)NC(=O)[C@H](Cc1c[nH]cn1)NC(=O)[C@H](C)NC(=O)[C@H](CO)NC(=O)[C@H](CC(C)C)NC(=O)[C@H](CCC(N)=O)NC(=O)[C@H](CC)NC(=O)[C@H](CC(C)C)NC(=O)[C@@H](NC(=O)[C@H](CCCN)NC(=O)[C@H](Cc1c[nH]cn1)NC(=O)[C@H](Cc1c(F)c(F)c(F)c(F)c1F)NC(=O)[C@H](CCCCNC(=N)N)NC(=O)[C@H](C)NC(=O)[C@@H](NC(=O)[C@H](Cc1ccc(Cl)cc1)NC(=O)[C@@H](NC(=O)[C@H](C)NC(=O)[C@H](CC(=O)O)NC(=O)[C@@H](CCCNC(=N)N)NC(=O)[C@H](Cc1ccc(O)cc1)NC(=O)CCCCCCCCCCCNC(=O)Cc1c(F)c(F)c(F)c(F)c1F)[C@@H](C)CC)[C@@H](C)O)C(C)C)[C@@H](C)CC)C(=O)N[C@H](CCCNC(=N)N)C(=O)N[C@@H](CCCCNC(=N)N)C(=O)NCCCCCCCCCCCC(N)=O [AVR-552, 5FPhAC-Ada-Tyr-DArg-Asp-Ala-Ile-Cpa-Thr-Ala-Har-5FPhe-His-Orn-Val-Leu-Abu-Gln-Leu-Ser-Ala-His-Orn-Leu-Leu-Gln-Asp-Ile-Nle-DArg-Har-Ada-NH2] ({Phenylacetyl(2,3,4,5,6-F5)-12Ado}-Y[dR]DAI[Phe(4-Cl)]TA[hArg][Phe(F5)]H[Orn]VL[Abu]QLSAH[Orn]LLQDI[Nle][dR][hArg][12Ado]-NH2)
HCC827 cells
  Relative inhibitory potency, Lung HCC827: 4.376
CFPAC-1 cells
  Relative inhibitory potency, Pancreatic CFPAC-1: 1.57
[1]
  Binding affinity to membrane receptors of human pituitary cells: higher binding affinity in comparison to MIA-602; also recorded: highest binding affinities

Source: patent US11993640B2, “Treating inflammatory lung disease” (United States Government as represented by the Department …, priority 2019, dated 2024)
